For assay [1], the target named is Brd4 bromodomain 1 (Homo sapiens, UniProt O60885). The note with it: as reported previously (Nature 468:1067 (2010)); cited from earlier work.
The subject of assay [2] is U20S cells. Put plainly: H2AX phosphorylation / γH2AX foci after IR with Brd4 bromodomain inhibitor. Format: cell-based, human.
Protocol: For small molecule testing, cells were plated at 500 cells/well in 384-well plates. The day after plating, small molecules at different concentrations in 100 nL DMSO were pin transferred to cells with a CyBio robot, and cells were propagated for 16 hours.
All plates were treated with 10 Gy of 667 keV X-rays from a 137Cs source in a Gammacell irradiator (Atomic Energy of Canada, Ltd). A 0 hour control plate was not irradiated. The plates were returned to the incubator and fixed with 4.4% w/v paraformaldehyde in phosphate-buffered saline (PBS) at 1, 6, and 24 hours post irradiation. Plates were stored in PBS at 4° C. prior to staining. Fixed plates were washed 3 times with PBS and blocked with 24 IJL of GSDB (0.15% goat serum, 8.33% goat serum, 120 mM sodium phosphate, 225 mM NaCl) for 30 minutes. […]
U20S cells were plated on #1 glass coverslips (VWR) and were cultured in DMEM+Pen/Strep+10% v/v FBS (complete media) at 37° C. in a 5% CO2 atmosphere, then exposed to 10 Gy Ionizing radiation from a 137CS source in a Gammacell irradiator (Atomic Energy of Canada, Ltd). fixed in methanol, and processed for immuofluorescence using the antibodies indicated above. […] Quantitative image analysis was accomplished using CellProfiler (www.CellProfiler.org) or ImageJ software (http://rsb.info.nih.gov/nihimageJ).
In assay [3] the test system is CHEK2 mRNA. Put plainly: CHEK2 mRNA expression by RT-PCR. Type of assay: cell-based, human. Particulars: short term treatment; FIG. 6B, 6C.
Protocol: (§1) UCN01 was from Sigma (cat. #U6508) and was used at concentrations of 0.003-10 μM.
The subject of assay [4] is U20S cells overexpressing Brd4 isoform B. As to the kind of experiment: γH2AX foci / DDR signaling suppression in cells overexpressing Brd4 isoform B. The note with it: for sensitivity of suppression of DDR signaling by Brd4 isoform B overexpression to transcription or translation inhibition: a-amanitin 1-16 μM, cycloheximide 35-560 μM. Format: cell-based, human.
Protocol: U20S cells were plated on #1 glass coverslips (VWR) and were cultured in DMEM+Pen/Strep+10% v/v FBS (complete media) at 37° C. in a 5% CO2 atmosphere, then exposed to 10 Gy Ionizing radiation from a 137CS source in a Gammacell irradiator (Atomic Energy of Canada, Ltd). fixed in methanol, and processed for immuofluorescence using the antibodies indicated above. Images were captured on a Zeiss Axiophot II microscope with a Hamamatsu CCD camera and processed with OpenLab/Volocity software. Quantitative image analysis was accomplished using CellProfiler (www.CellProfiler.org) or ImageJ software (http://rsb.info.nih.gov/nihimageJ).
as §1
3×10^6 U20S cells were plated and transiently transfected with pEGFP-C 1, isoform C, isoform B, isoform B, BD1 mutant, Brd4-NUT and truncated Brd4-NUT using Fugene 6 (Roche). These cells were exposed to 10 Gy Ionizing radiation and harvested 24 hrs later, fixed with 4% formaldehyde, extracted with 100% ethanol, processed for flow cytometry using the antibodies listed above. Data were analyzed using FlowJo (www.flowjo.com) software.
U20S cell lines stably expressing this shRNA or control hairpins (ineffective hairpins directed against human sequences of BAD and PUMA) were created using puromycin selection at 2 ug/mL. STEALTH siRNA against BRD4 and control were purchased from Invitrogen, and used according to manufacturer's instructions.
Assay [5] concerns U20S cells. Put plainly: Image-based screen: G2/M arrest and mitotic entry (DNA content, pHH3) after irradiation. Type of assay: cell-based, human. Particulars: 10 Gy IR, FIGS. 1B, 1D, 1F, 1G.
Protocol: For both shRNA and small molecule screens, human U20S osteosarcoma cells (ATCC HTB-96) were grown in DMEM+Pen/Strep+10% v/v FBS (complete media) at 37° C. in a 5% CO2 atmosphere. All screens were carried out at passage 10-15. Cells were tested for mycoplasma by PCR prior to seeding and infection. U20S cells were seeded with a MicroFill (Biotek) in 384-well black, clear bottom plates (Greiner) at a density of 300 (shRNA) cells/well in 50 IJL of media, and allowed to attach overnight at 37° C. in a 5% CO2 atmosphere.
For shRNA screens, the media was exchanged the following day to complete media with 8 μg/mL polybrene using a JANUS workstation (PerkinElmer). Virus infection was carried out on an EP3 workstation (PerkinElmer) with 1.5 μL of hightiter retrovirus. […] Plates were centrifuged in a swinging-bucket rotor at 2250 rpm for 30 minutes following infection and returned to the incubator overnight. […]
Plates were allowed to equilibrate to room temperature for 30 minutes and imaged on a Cellomics ArrayScan VTI automated microscope with a 20× objective. […] Images were segmented and analyzed with CellProfiler cell image analysis software (Carpenter et al., Genome Biology, 2006, 7, R100). […]

With `Cc1sc2c(c1C)C(c1ccc(Cl)cc1)=NC(CC(=O)OC(C)(C)C)c1nnc(C)n1-2` (single isomer, unassigned; (+)) [(+)JQ1], the “inhibition of Brd4 bromodomain 1 versus bromodomain 2” value in assay [1] is given as “more potent inhibition of Brd4 bromodomain 1 than bromodomain 2”. For the same molecule, the “H2AX phosphorylation following IR” value in assay [2] (compound at 250 nM, 10 Gy IR) is recorded as “enhanced H2AX phosphorylation following IR”. The “γH2AX foci formation after irradiation” value in assay [2] (inhibition with JQ1 or short term Brd4 knockdown) was “sufficient to increase γH2AX foci formation after irradiation”. Moreover, the “CHEK2 mRNA” value in assay [3] is reported as “no change in CHEK2 mRNA”. For the same molecule, the “reversal of the ability of Brd4 isoform B to suppress γH2AX foci formation” value in assay [4] (cells overexpressing Brd4 isoform B, compound at 250 nM) is recorded as “reversed”.

Turning to `CN[C@@H]1C[C@H]2O[C@@](C)([C@@H]1OC)n1c3ccccc3c3c4c(c5c6ccccc6n2c5c31)C(=O)N[C@@H]4O` [UCN01], the “G2/M arrest following irradiation / mitotic entry” value in assay [5] is reported as “abrogated the normal G2/M arrest following irradiation, leading to premature mitotic entry”.

Regarding `C[C@@H]1C[C@@H]([C@H](O)CC2CC(=O)NC(=O)C2)C(=O)[C@@H](C)C1` [cycloheximide], in assay [4], the “sensitivity of suppression of DDR signaling by Brd4 isoform B overexpression to transcription or translation inhibition” value is “insensitive”.

Take a-amanitin: in assay [4], the “sensitivity of suppression of DDR signaling by Brd4 isoform B overexpression to transcription or translation inhibition” value was “insensitive”.
